Assay [1] concerns NF-κB. Put plainly: RWPE single-challenge model after intranasal NF-κB inhibitor. It counts as in vivo. As to conditions: WT mice; intranasal 1 hour before RWPE; BAY 11-7082 10 mg/kg, NEMO-binding domain binding peptide 25 per mouse; 16 hours. How it is done: WT mice were intranasally challenged with a single dose of RWPE or CDE (100 μg/60 μL) and euthanized after 16 hours. In additional experiments, 1 hour before RWPE challenge, WT mice were treated with or without intranasal administration of a nuclear factor κB (NF-κB) inhibitor that selectively irreversibly blocks IκBα phosphorylation with BAY 11-7082 (10 mg/kg body weight; Calbiochem, San Diego, Calif.) (13) or NEMO-binding domain binding peptide (25 per mouse, Calbiochem) (14). These treated mice were challenged with RWPE and euthanized, as described above. Total and differential bronchoalveolar lavage fluid (BALF) cell counts were performed (16). Lungs were perfused and fixed with Zn fixative (BD Biosciences, San Jose, Calif.), and sections were stained with periodic acid-Schiff for mucus staining.

Assay [2] concerns the target T1, CXCR2 (Mus musculus, UniProt P35343).
T1 construct: endogenous in cells; host or cells: wild-type mice in vivo (receptor on neutrophils)
T1 sequence (P35343 1-359): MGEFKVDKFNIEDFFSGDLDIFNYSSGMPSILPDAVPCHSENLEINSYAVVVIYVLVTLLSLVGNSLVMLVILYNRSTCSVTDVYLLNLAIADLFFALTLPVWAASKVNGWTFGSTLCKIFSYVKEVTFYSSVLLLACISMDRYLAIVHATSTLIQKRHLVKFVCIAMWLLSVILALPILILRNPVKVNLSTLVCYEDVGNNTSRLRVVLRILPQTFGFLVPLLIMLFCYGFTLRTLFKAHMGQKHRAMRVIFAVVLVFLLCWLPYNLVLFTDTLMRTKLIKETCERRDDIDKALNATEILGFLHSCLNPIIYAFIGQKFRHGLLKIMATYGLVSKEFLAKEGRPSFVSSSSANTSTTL
Briefly: RWPE repeated-challenge model with CXCR2 inhibitor. It counts as in vivo. As to conditions: WT mice. How it is done: WT mice or Tlr4 KO mice were sensitized by five intranasal doses of RWPE (100 μg/60 μl) on Days 0, 1, 2, 3, and 4. These mice were challenged with intranasal RWPE or PBS on Day 11 and killed on Day 14 (14). In addition, WT mice were sensitized by five intranasal doses of RWPE on Days 0, 1, 2, 3, and 4 with RWPE with or without the intranasal administration of 4 mg/kg body weight SB225002 (16) 1 hour before each intranasal dose of RWPE. The mice were challenged with intranasal RWPE on Day 11 and killed on Day 14 (14). In some experiments, Tlr4 KO mice were sensitized by five intranasal doses of RWPE on Days 0, 1, 2, 3, and 4 in the presence or absence of X+XO and challenged with intranasal RWPE in the presence or absence of X+XO on Day 11 and killed on Day 14 as described above (14). In some experiments, RWPE and negatively selected neutrophils derived from bone marrow of donor mice were repeatedly intranasally instilled in Tlr4 KO mice. The purity of neutrophils was assessed to be 99% by FACS. Tlr4 KO mice were intranasally administered neutrophils (4×10^6 neutrophils per mouse) 8 hours after intranasal instillation of RWPE on Days 0, 1, 2, 3, 4, and 11 and killed on Day 14 as described previously to evaluate allergic inflammation.
(§1) Bronchoalveolar lavage fluid (BALF) and histological examinations including PAS staining for mucin were performed as described previously (Sur et al., J Immunol 1996; 157(9):4173-4180). In some experiments, leukotriene B4 (LTB4), CXCL1/2, IL-5, IL-13, TSLP, and IL-33 in BALF were assayed using ELISA kits (R&D Systems, Minneapolis, Minn.)
Mucin production was assessed by two investigators who were blinded to the treatment groups using a modification of a method reported (Wild et al., 2000, J Immunol 2000; 164(5):2701-2710) on a subjective scale of 0, 1, 2, 3, and 4 corresponding to none, mild, moderate, marked, or severe mucin deposition, respectively. The data were expressed as mean of score recorded by two blinded investigators.
RWPE-specific IgE was measured using a previously described procedure (Wild et al., J Immunol 2000; 164(5):2701-2710). Briefly 96-well plates were coated with 100 ug/ml of RWPE protein overnight. After washing and blocking, diluted sera from the mice treated as above were applied. The plates were incubated with biotin-conjugated […] (clone R35-72; BD Biosciences, San Jose, Calif.) for 2 hours at room temperature, washed and incubated with avidin-conjugated alkaline phosphatase. After washing, fluorometric values for each well were recorded after addition of AttoPhos substrate solution (Promega, Madison, Wis.).

In assay [3] the target is T1, CXCR2. Briefly: Ex vivo superoxide generation from BALF cells after RWPE challenge. It is filed as in vivo. As to conditions: WT mice; 4 mg/kg intranasal 1 hour before RWPE; 16 hours after RWPE challenge. The protocol: WT mice and Tlr4 KO mice were challenged with 100 μg of RWPE or PBS and sacrificed at 0.5 and 16 hours. Ex vivo superoxide generation by BALF cells was measured by a mixture of two probes to optimize sensitivity of detection of superoxide (luminol and Diogenes) (Yamazaki et al., Trop Med Health 2011; 39(2):41-45). In additional experiments, WT mice with intranasal administration of the CXCR2 inhibitor SB225002 (4 mg/kg body weight) 1 hour before RWPE challenge, and ex vivo superoxide generation from cells in BALF was quantified.

The target of assay [4] is T1, CXCR2. Briefly: RWPE single-challenge model with CXCR2 inhibitor: BALF cell counts. It counts as in vivo. As to conditions: WT mice. How it is done: WT mice and Tlr4 KO mice were intranasally challenged with a single dose of 100 μg/60 μl RWPE reconstituted from lyophilized RWPE (Greer Laboratories, Lenoir, N.C.) and killed after 0.5, 1, 4, 16, or 72 hours. In some experiments, to generate superoxide (7, 15), Tlr4 KO mice were intranasally challenged with 0.32 mM xanthine (X) (Sigma-Aldrich, St. Louis, Mo.) with 50 mU xanthine oxidase (XO) (Sigma-Aldrich) in the presence or absence of RWPE. In some experiments, 1 hour before RWPE challenge, WT mice were treated with intranasal administration of 4 mg/kg body weight chemokine (C-X-C motif) receptor 2 (CXCR2) inhibitor SB225002 (Calbiochem, San Diego, Calif.) and challenged with RWPE and killed as described above.
as §1

The test system of assay [5] is IgE. As to conditions: reference 20; cited from earlier work.
Setting [6] is: 4 mg/kg intranasal before each RWPE dose, vs vehicle.

Sequence of IgE (P01854 1-428 isoform P01854-1): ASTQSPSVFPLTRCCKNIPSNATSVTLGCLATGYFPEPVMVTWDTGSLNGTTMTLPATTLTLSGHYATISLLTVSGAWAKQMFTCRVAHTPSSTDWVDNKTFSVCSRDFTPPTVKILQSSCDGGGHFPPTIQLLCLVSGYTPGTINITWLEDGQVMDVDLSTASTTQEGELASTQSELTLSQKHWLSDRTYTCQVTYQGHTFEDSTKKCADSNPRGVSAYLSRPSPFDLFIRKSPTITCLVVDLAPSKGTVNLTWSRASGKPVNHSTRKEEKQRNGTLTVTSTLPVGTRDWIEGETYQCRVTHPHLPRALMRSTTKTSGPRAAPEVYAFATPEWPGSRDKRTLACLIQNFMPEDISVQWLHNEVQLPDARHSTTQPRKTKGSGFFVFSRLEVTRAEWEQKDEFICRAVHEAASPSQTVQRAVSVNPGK

With `Cc1ccc(S(=O)(=O)/C=C/C#N)cc1` [BAY 11-7082], in assay [1], the “RWPE challenge-induced neutrophil recruitment into the airways” value is on record as “decreased”.
For `O=C(Nc1ccc([N+](=O)[O-])cc1O)Nc1ccccc1Br` [SB225002], the RWPE-induced allergic inflammation entry in assay [2] (4 mg/kg intranasal 1 hour before each RWPE dose, compared with vehicle) is given as “attenuated”. Further, in assay [2] (setting [6]), the “decrease in BALF eosinophils” value is on record as 50 to 80%, the “decrease in BALF level of IL-5” value lay in the range of 50 to 80%, the “decrease in BALF level of IL-13” value fell in the range of 50 to 80% and the “decrease in BALF level of IL-33” value is 50 to 80%. Also, in assay [2] (setting [6]), the “decrease in BALF level of TSLP” value is 50 to 80%, the “decrease in BALF total inflammatory cells” value lay in the range of 50 to 80%, the “decrease in accumulation of mucin in epithelial cells” value is given as 50 to 80% and the “decrease in serum RWPE-specific IgE” value was 50 to 80%. In addition, in assay [3], the “RWPE-induced recruitment of superoxide-generating cells (ex vivo superoxide generation of BALF cells)” value is given as “blocked”. Besides, the “suppression of neutrophil recruitment into the lungs (BALF neutrophils)” value in assay [4] (4 mg/kg intranasal 1 hour before RWPE challenge, 16 hours after challenge) is listed as 66%. Besides, in assay [4] (inhibitor before RWPE challenge, data not shown), the “number of other cell types in BALF” value is “did not alter”.
On to “Omalizumab: marketed drug cited for cat allergen exposure”, for which, in assay [5], the “severity of acute airway obstruction and symptoms caused by exposure to cat allergen” value is listed as “ameliorates”.

Values taken from patent publication US20160311911A1, “METHODS FOR TREATING ALLERGIC AIRWAY INFLAMMATION” (priority 2015, published 2016).
